# Results published in patent US8445484B2, “Bicyclic peptidomimetic inhibitors of aspartyl-proteases for the treatment of infectious diseases” (Istituto Superiore di Sanita', priority 2008, dated 2013).
# Square brackets hold non-standard residues; d marks the D form. Peptide text beside a SMILES is read from it. * marks the point of attachment. Sta = CC(C)C[C@H](N)[C@@H](O)CC(=O)O; Isovaleryl = CC(C)CC(=O)*
# Assays:
# SAP2 = SAP2 (Candida albicans, UniProt P0DJ06); type: biochemical; conditions: 10 μm compound; relative to pepstatin; pH 3.2, 30 min at 37° C.
# Chain of SAP2 (P0DJ06 57-398): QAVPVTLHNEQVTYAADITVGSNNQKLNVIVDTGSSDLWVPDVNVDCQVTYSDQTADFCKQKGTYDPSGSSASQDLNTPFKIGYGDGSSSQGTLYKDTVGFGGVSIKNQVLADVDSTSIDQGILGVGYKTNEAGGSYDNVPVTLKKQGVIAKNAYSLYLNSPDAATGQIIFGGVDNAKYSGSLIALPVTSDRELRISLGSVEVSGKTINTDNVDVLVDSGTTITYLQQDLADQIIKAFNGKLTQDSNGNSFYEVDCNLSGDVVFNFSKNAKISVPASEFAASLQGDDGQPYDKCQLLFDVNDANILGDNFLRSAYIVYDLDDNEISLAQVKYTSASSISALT
# Experimental: Spectrophotometric method: protease activity of the various compounds of formula (I) was measured by a spectrophotometric assay with respect to pepstatin activity at the same concentration: each assay contained 50 μl of sample in 0.4 ml of 1% (w/v) BSA in 50 mM sodium citrate pH 3.2 and 50 μl of protease solution (1 μg/ml) After 30 min at 37° C. 1 ml 10% (w/v) trichloroacetic acid was added. The tubes were stored in ice for 30 min, and then centrifuged (3000 g) for 10 min. The absorbance of the supernatant was read at 280 nm. Control: 1% BSA in citrate buffer. One unit of the enzyme catalysed a ΔA280 of 1 min^−1. With the pure protease the assay was proportional to enzyme concentration over the range ΔA280 0.1-0.4 and a limit detection of 1 μg (De Bernardis F., Sullivan P. A., Cassone A. Medical Mycology 2001, 39, 303).
# C. albicans SA40 = test: Experimental rat vaginal infection, C. albicans SA40 clearance; type: in vivo, Candida albicans; conditions: for Candida SA40 cells in vaginal fluid (CFU/ml): oophorectomized Wistar rats, intravaginal treatment 1, 24, 48 hrs after challenge
# Experimental: (§1) Experimental vaginal infection: for the experimental vaginal infection, a previously described rat vaginal model was adopted (De Bernardis, F.; Boccanera, M.; Adriani, D.; Spreghini, E.; Santoni, G.; Cassone, A. Infect. Immun., 1997, 65, 3399).
# (§2) In brief, oophorectomized female Wistar rats (80-100 g; Charles River Calco, Italy) were injected subcutaneously with 0.5 mg of estradiol benzoate (Estradiolo, Amsa Farmaceutici srl, Rome, Italy). Six days after the first estradiol the animals were inoculated intravaginally with […] yeast cells in 0.1 ml of saline solution of each C. albicans strain tested. The inoculum was dispensed into the vaginal cavity through a syringe equipped with a multipurpose calibrated tip (Combitip; PBI, Milan, Italy). The yeast cells had been previously grown in YPD broth (yeast extract 1%; peptone 2%; dextrose 2%) at 28° C. on a gyrator shaker (200 rpm), harvested by centrifugation (1500 g), washed, counted in a hemocytometer, and suspended to the required number in saline solution. The number of cells in the vaginal fluid was counted by culturing 100 μl samples (using a calibrated plastic loop, Disponoic, PBI, Milan, Italy) taken from each animals, on Sabouraud agar containing chloramphenicol (50 μg/ml) as previously described. The rat was considered infected when at least 1 CFU was present in the vaginal lavage, i.e. a count of […].
# (§3) Positive (pepstatin 10 μg; fluconazole 10 μg and negative (sterile saline solution) were similarly administered.
# C. albicans AIDS68 = test: Experimental rat vaginal infection, C. albicans AIDS68 (pharmacoresistant) clearance; type: in vivo, Candida albicans; conditions: for Candida AIDS68 cells in vaginal fluid (CFU/ml): oophorectomized Wistar rats, intravaginal treatment 1, 24, 48 hrs after challenge
# Experimental: as §1, §2, §3
structure (smiles),measurement,setting,value
"COC(=O)[C@H](CC(C)C)N1C[C@H]2O[C@H](C(=O)N3CCCCC3)[C@@H](O2)C1=O [Cpd 1, (2S)-4-Methyl-2-[(1R,5S,7S)-2-oxo-7-(piperidine-1-carbonyl)-6,8-dioxa-3-aza-bicyclo[3.2.1]oct-3-yl]-pentanoic acid methyl ester]",1% percent of inhibition with respect to pepstatin at the same concentration,SAP2,37%
"COC(=O)[C@H](CC(C)C)N1C[C@H]2O[C@H](C(=O)N3CCOCC3)[C@@H](O2)C1=O [Cpd 2, 4′-Methyl-(2′S)-2′-[(1R,5S,7S)-7-(morpholine-4-carbonyl)-2-oxo-6,8-dioxa-3-aza-bicyclo[3.2.1]oct-3-yl]-pentanoic acid methyl ester]",1% percent of inhibition with respect to pepstatin at the same concentration,SAP2,32%
"CCCCNC(=O)CC(O)CNC(=O)[C@H](CC(C)C)N1C[C@H]2O[C@H](C(=O)N3CCCCC3)[C@@H](O2)C1=O (stereo partly drawn) [Cpd 3, (2S)-4-Methyl-2-[(1R,5S,7S)-2-oxo-7-(piperidine-1-carbonyl)-6,8-dioxa-3-aza-bicyclo[3.2.1]oct-3-yl]-pentanoic acid (3-butylcarbamoyl-2-hydroxy-propyl)-amide]",1% percent of inhibition with respect to pepstatin at the same concentration,SAP2,22%
O=C(NCCO)C1OC2CN(Cc3ccccc3)C(=O)C1O2 (stereo not shown) [Cpd 4],1% percent of inhibition with respect to pepstatin at the same concentration,SAP2,36%
CC(C)CC(CO)NC(=O)C1OC2CN(Cc3ccccc3)C(=O)C1O2 (stereo not shown) [Cpd 5],1% percent of inhibition with respect to pepstatin at the same concentration,SAP2,41%
O=C(C1OC2CN(Cc3ccccc3)C(=O)C1O2)N1CCCCC1 (stereo not shown) [Cpd 6],differences between treated and untreated control,"C. albicans SA40; SA40, starting day 1, P<0.01, Mann-withney U test",statistically significant
same,Candida SA40 cells in vaginal fluid (CFU/ml),C. albicans SA40; day 0,>100 ×1000
same,Candida SA40 cells in vaginal fluid (CFU/ml),C. albicans SA40; day 1,70 ± 1.3 ×1000
same,Candida SA40 cells in vaginal fluid (CFU/ml),C. albicans SA40; day 2,57.6 ± 1.4 ×1000
same,Candida SA40 cells in vaginal fluid (CFU/ml),C. albicans SA40; day 5,39.2 ± 3 ×1000
same,Candida SA40 cells in vaginal fluid (CFU/ml),C. albicans SA40; day 7,30.6 ± 1.8 ×1000
same,Candida SA40 cells in vaginal fluid (CFU/ml),C. albicans SA40; day 14,14.4 ± 1.6 ×1000
same,Candida SA40 cells in vaginal fluid (CFU/ml),C. albicans SA40; day 21,8 ± 1.5 ×1000
same,Candida SA40 cells in vaginal fluid (CFU/ml),C. albicans SA40; day 28,1.2 ± 0.7 ×1000
same,1% percent of inhibition with respect to pepstatin at the same concentration,SAP2,42%
same,differences between treated and untreated control,"C. albicans AIDS68; AIDS68, starting day 1, P<0.01, Mann-withney U test",statistically significant
same,Candida AIDS68 cells in vaginal fluid (CFU/ml),C. albicans AIDS68; day 0,>100 ± 0 ×1000
same,Candida AIDS68 cells in vaginal fluid (CFU/ml),C. albicans AIDS68; day 1,71.8 ± 1.3 ×1000
same,Candida AIDS68 cells in vaginal fluid (CFU/ml),C. albicans AIDS68; day 2,62.6 ± 1.5 ×1000
same,Candida AIDS68 cells in vaginal fluid (CFU/ml),C. albicans AIDS68; day 5,40.6 ± 1.4 ×1000
same,Candida AIDS68 cells in vaginal fluid (CFU/ml),C. albicans AIDS68; day 7,23.2 ± 1.4 ×1000
same,Candida AIDS68 cells in vaginal fluid (CFU/ml),C. albicans AIDS68; day 14,12.8 ± 1.2 ×1000
same,Candida AIDS68 cells in vaginal fluid (CFU/ml),C. albicans AIDS68; day 21,3.4 ± 1.7 ×1000
same,Candida AIDS68 cells in vaginal fluid (CFU/ml),C. albicans AIDS68; day 28,0 ± 0 ×1000
O=C(C1OC2CN(Cc3ccccc3)C(=O)C1O2)N1CCN(CCO)CC1 (stereo not shown) [Cpd 7],1% percent of inhibition with respect to pepstatin at the same concentration,SAP2,34%
O=C(C1OC2CN(Cc3ccccc3)C(=O)C1O2)N1CCOCC1 (stereo not shown) [Cpd 8],1% percent of inhibition with respect to pepstatin at the same concentration,SAP2,31%
CCOC(=O)N1CCN(C(=O)C2OC3CN(Cc4ccccc4)C(=O)C2O3)CC1 (stereo not shown) [Cpd 9],1% percent of inhibition with respect to pepstatin at the same concentration,SAP2,37%
O=C(NCCCO)C1OC2CN(Cc3ccccc3)C(=O)C1O2 (stereo not shown) [Cpd 10],1% percent of inhibition with respect to pepstatin at the same concentration,SAP2,12%
O=C(NC(CO)c1ccccc1)C1OC2CN(Cc3ccccc3)C(=O)C1O2 (stereo not shown) [Cpd 13],1% percent of inhibition with respect to pepstatin at the same concentration,SAP2,16%
O=C(NC(CO)Cc1ccccc1)C1OC2CN(Cc3ccccc3)C(=O)C1O2 (stereo not shown) [Cpd 14],1% percent of inhibition with respect to pepstatin at the same concentration,SAP2,19%
O=C(NC(CO)Cc1ccccc1)C1OC2CN(Cc3ccccc3)C(=O)C1O2 (stereo not shown) [Cpd 15],1% percent of inhibition with respect to pepstatin at the same concentration,SAP2,15%
CCCCNC(=O)C1OC2OC1C(=O)N(Cc1ccccc1)C2Cc1ccccc1 (stereo not shown) [Cpd 16],1% percent of inhibition with respect to pepstatin at the same concentration,SAP2,17%
CCCCCCNC(=O)C1OC2OC1C(=O)N(Cc1ccccc1)C2Cc1ccccc1 (stereo not shown) [Cpd 17],1% percent of inhibition with respect to pepstatin at the same concentration,SAP2,21%
O=C(NCC(F)(F)F)C1OC2OC1C(=O)N(Cc1ccccc1)C2Cc1ccccc1 (stereo not shown) [Cpd 18],1% percent of inhibition with respect to pepstatin at the same concentration,SAP2,17%
O=C(C1OC2OC1C(=O)N(Cc1ccccc1)C2Cc1ccccc1)N1CCOCC1 (stereo not shown) [Cpd 19],1% percent of inhibition with respect to pepstatin at the same concentration,SAP2,25%
O=C(C1OC2OC1C(=O)N(Cc1ccccc1)C2Cc1ccccc1)N1CCSCC1 (stereo not shown) [Cpd 20],1% percent of inhibition with respect to pepstatin at the same concentration,SAP2,28%
O=C(C1OC2OC1C(=O)N(Cc1ccccc1)C2Cc1ccccc1)N1CCN(CCO)CC1 (stereo not shown) [Cpd 21],1% percent of inhibition with respect to pepstatin at the same concentration,SAP2,31%
OC(Cn1cncn1)(Cn1cncn1)c1ccc(F)cc1F [fluconazole],Candida AIDS68 cells in vaginal fluid (CFU/ml),C. albicans AIDS68; day 0,>100 ± 0 ×1000
same,Candida AIDS68 cells in vaginal fluid (CFU/ml),C. albicans AIDS68; day 1,100 ± 0 ×1000
same,Candida AIDS68 cells in vaginal fluid (CFU/ml),C. albicans AIDS68; day 2,93 ± 4.3 ×1000
same,Candida AIDS68 cells in vaginal fluid (CFU/ml),C. albicans AIDS68; day 5,61 ± 2.5 ×1000
same,Candida AIDS68 cells in vaginal fluid (CFU/ml),C. albicans AIDS68; day 7,44 ± 2.9 ×1000
same,Candida AIDS68 cells in vaginal fluid (CFU/ml),C. albicans AIDS68; day 14,18.7 ± 3.8 ×1000
same,Candida AIDS68 cells in vaginal fluid (CFU/ml),C. albicans AIDS68; day 21,11.7 ± 0.7 ×1000
same,Candida AIDS68 cells in vaginal fluid (CFU/ml),C. albicans AIDS68; day 28,0 ± 0 ×1000
"CC(C)CC(=O)N[C@H](C(=O)N[C@H](C(=O)N[C@@H](CC(C)C)[C@@H](O)CC(=O)N[C@@H](C)C(=O)N[C@@H](CC(C)C)[C@@H](O)CC(=O)O)C(C)C)C(C)C [pepstatin, reference compound] (Isovaleryl-VV[Sta]A[Sta]-OH)",Candida SA40 cells in vaginal fluid (CFU/ml),C. albicans SA40; day 0,>100 ×1000
same,Candida SA40 cells in vaginal fluid (CFU/ml),C. albicans SA40; day 1,56.8 ± 2 ×1000
same,Candida SA40 cells in vaginal fluid (CFU/ml),C. albicans SA40; day 2,51 ± 1.2 ×1000
same,Candida SA40 cells in vaginal fluid (CFU/ml),C. albicans SA40; day 5,32.4 ± 2.5 ×1000
same,Candida SA40 cells in vaginal fluid (CFU/ml),C. albicans SA40; day 7,28 ± 1.5 ×1000
same,Candida SA40 cells in vaginal fluid (CFU/ml),C. albicans SA40; day 14,9.4 ± 1.4 ×1000
same,Candida SA40 cells in vaginal fluid (CFU/ml),C. albicans SA40; day 21,5 ± 1.3 ×1000
same,Candida SA40 cells in vaginal fluid (CFU/ml),C. albicans SA40; day 28,0 ×1000
same,Candida AIDS68 cells in vaginal fluid (CFU/ml),C. albicans AIDS68; day 0,>100 ± 0 ×1000
same,Candida AIDS68 cells in vaginal fluid (CFU/ml),C. albicans AIDS68; day 1,58.4 ± 1.0 ×1000
same,Candida AIDS68 cells in vaginal fluid (CFU/ml),C. albicans AIDS68; day 2,52.0 ± 1.3 ×1000
same,Candida AIDS68 cells in vaginal fluid (CFU/ml),C. albicans AIDS68; day 5,37.2 ± 1.6 ×1000
same,Candida AIDS68 cells in vaginal fluid (CFU/ml),C. albicans AIDS68; day 7,30.0 ± 1.2 ×1000
same,Candida AIDS68 cells in vaginal fluid (CFU/ml),C. albicans AIDS68; day 14,19.8 ± 0.8 ×1000
same,Candida AIDS68 cells in vaginal fluid (CFU/ml),C. albicans AIDS68; day 21,3.8 ± 1.9 ×1000
same,Candida AIDS68 cells in vaginal fluid (CFU/ml),C. albicans AIDS68; day 28,0 ± 0 ×1000
